From patent US20250205204A1, “Transcription Factor Brn2 Inhibitory Compounds for Use as Therapeutics” (The University of British Columbia, priority 2021, published 2025)
Where two headings read alike, the source gives them in different places.

Tests used:
BRN2 = target: T1, BRN2 (Homo sapiens, UniProt P20265); assay: BLI binding; conditions: result in words
T1 sequence (P20265 1-443): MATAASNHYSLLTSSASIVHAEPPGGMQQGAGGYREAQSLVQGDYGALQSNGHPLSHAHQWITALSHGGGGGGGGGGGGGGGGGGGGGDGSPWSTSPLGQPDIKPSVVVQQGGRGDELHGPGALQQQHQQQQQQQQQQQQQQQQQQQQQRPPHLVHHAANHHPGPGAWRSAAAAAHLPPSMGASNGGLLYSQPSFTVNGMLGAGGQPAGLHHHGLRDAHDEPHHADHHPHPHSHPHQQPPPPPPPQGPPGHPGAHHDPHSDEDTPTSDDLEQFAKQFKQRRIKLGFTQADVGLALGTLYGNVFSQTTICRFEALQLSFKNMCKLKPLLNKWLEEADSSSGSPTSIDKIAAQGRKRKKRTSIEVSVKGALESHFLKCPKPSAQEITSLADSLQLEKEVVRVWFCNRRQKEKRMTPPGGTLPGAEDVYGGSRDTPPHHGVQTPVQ

[1] = Metabolic stability in liver microsomes (MLM); format: in vitro ADME, mice; conditions: 0.25 mg/mL protein; for half-life at 1 μM: mouse, liver microsomes, pH 7.4, 1 μM compound, read-out: T1/2 in mins (MLM); for Met Stab % (60 mins) MLM: percent remaining at 60 min, 1 μM compound, 1 mM NADPH
Protocol: Preparation of Potassium Phosphate Buffer, 50 mM (pH 7.4)
Potassium phosphate buffer (Kphos) was prepared by adding 0.647 g potassium phosphate monobasic (KH2PO4) and 3.527 g potassium phosphate dibasic (KH2PO4) to 400 mL of Milli-Q™ water. pH of the buffer was adjusted to 7.4 and volume was made up to 500 mL.
Preparation of Microsomes
Stock solutions of BRN2 inhibitors were prepared in DMSO at a concentration of 1 mM
Preparation of NADPH Solution
• Total Incubation volume: 100 μL • Compound concentration: 1 μM • Protein Concentration: 0.25 mg/mL • NADPH: 1 mM • Final DMSO contain: 0.1% • Number of replicates: 2 • Time points: 0, 5, 15, 30 and 60 min
From the above mix, 70 μL was added to individual wells of 96 well reaction plates and pre-incubated in a 37° C. water bath for 5 min. […] Reactions without NADPH and buffer controls (minus NADPH) at 0 min and 60 min were also incubated to rule out non-NADPH metabolism or chemical instability in the incubation buffer. All reactions were terminated using 100 μL of ice-cold acetonitrile containing internal standard at 0, 5, 15, 30 and 60 min.
Samples were monitored for parent compounds disappearance in MRM mode using LC-MS/MS.
The percent remaining of test compounds and positive control in each sample was determined by considering peak area ratio in the 0 minute sample as 100%. The Half-life of compounds in microsomes is calculated by formula: […]
In vitro intrinsic clearance (CL'int) (units in mL/min/kg) was calculated using the formula.
[formula] • For liver microsomes, scaling factor used was 45 mg microsomal protein per gm liver. • * Indicates liver weight (gm) which varies species wise. For mice the liver weights are 90 gm.

42D^ENZR cells = assay: Cell proliferation, BRN2 expressing 42D cells (crystal violet); format: cell-based; conditions: for Growth Specificity: 42D (express BRN2) versus 16D (no BRN2) cells, result in words
Protocol: Step 3: Cell Proliferation
Plate 42DE^NZR (˜7000 cells per well) and 16D^CRPC (˜5000 cells per well) cells in 96 well plate with a volume of 100 μL per well. • 2. Next day 1 mL aliquots of media are combined with 3× the desired concentration of compounds. The aliquots are vortexed and 50 μL of each 3× concentration is added to the 100 μL of media in each well to give the ix desired concentration.
The following are the desired concentrations:
Approximately 72 hours later, 17 μL of 10% Glutaraldehyde is added to each well and plates are placed on a shaker for 20-30 minutes. • 4. Media is washed off the fixed cells by slow submersion in a container of water. Then the water is removed by tapping the plate upside down. • 5. 75 μL of Crystal Violet™ solution is added into the 96 well plates and placed on a shaker for ˜30 minutes. • 6. Media is washed off the fixed cells by repeated slow submersion in a container of water and the plates are allowed to dry over-night. • 7. Next day, 75 μL of Sorensen Solution is accurately pipetted into each well. The plates placed on a shaker for ˜30 minutes. • 8. Absorbance is measured in the plate at 590 nm.
There is a distinction in TABLES 1 and 2 difference between “Active” and “Specific” or “Specificity”.

[2] = 42D cells, proliferation, about 72 hours, read-out: 42D IC50

Structure (SMILES) | BLI binding (BRN2) | half-life at 1 μM [1] [min] | Met Stab % (60 mins) MLM [1] [%] | Growth Specificity (42D^ENZR cells; about 72 hours) | IC50 (42D^ENZR cells; read-out: IC50 (effective on both 42D and 16D cells)) [µM] | IC50 (42D^ENZR cells; [2]) [µM]
O=C1C/C(=N/Nc2nc3ccccc3s2)c2ccccc21 [7-52] | Positive | 23 | 9 | effective on both 42D and 16D cells | 3 to 7 | 
O=C1/C(=N\Nc2nc3ccccc3s2)Cc2cc(F)ccc21 [7-70, (Z)-2-(2-(benzo[d]thiazol-2-yl)hydrazineylidene)-5-fluoro-2,3-dihydro-1H-inden-1-one] | Positive binding | 50 | 38 | Specific to 42D |  | ~5
O=C1/C(=N\Nc2nc3ccccc3s2)Cc2cc(Cl)ccc21 [7-71, (Z)-2-(2-(benzo[d]thiazol-2-yl)hydrazineylidene)-5-chloro-2,3-dihydro-1H-inden-1-one] | Positive binding | 47 | 35 | Specific to 42D but weak |  | ~15
O=C1/C(=N\Nc2ccc3ccccc3n2)Cc2ccccc21 [7-80, (Z)-2-(2-(quinolin-2-yl) hydrazineylidene)-2,3-dihydro-1H-inden-1-one] |  | 10 | 4 | Specific to 42D |  | 
O=C1/C(=N\Nc2cc3ccccc3s2)Cc2ccccc21 [7-83, (Z)-2-(2-(benzo[b]thiophen-2-yl)hydrazineylidene)-2,3-dihydro-1H-inden-1-one] |  | 17 | 16 | Not effective on 42D or 16D cells |  | 
O=c1c(=NNc2nc3ccccc3s2)c(=O)c2ccccc12 [7-85] |  | 32 | 25 | Not specific |  | 
O=C(NNc1nc2ccccc2s1)C1Cc2ccccc2C1=O (centres unmarked) [7-86] |  | 19 | 18 | Not specific |  | 
O=C(O)c1csc(N/N=C2/Cc3ccccc3C2=O)n1 [7-87] |  | > 60 | 98 | Not specific |  | 
O=C(O)c1cnc(N/N=C2/Cc3ccccc3C2=O)s1 [7-88] |  | > 60 | 94 | Not specific |  | 
O=C1/C(=N\Nc2nc3ccccc3s2)CCc2ccccc21 [7-89] |  | 11 | 2 | Not specific |  | 
O=C1/C(=N\Nc2nc3ccccc3s2)Cc2cc(-c3ccccc3)ccc21 [7-98] |  | 33 | 26 | Specific to 42D |  | ~2
COc1ccc2c(c1)C/C(=N/Nc1nc3ccccc3s1)C2=O [7-99] |  | 15 | 6 | Potent but effective on both 42D and 16D cells |  | 
O=C1/C(=N\Nc2nc3ccccc3s2)Cc2ccc(C(F)(F)F)cc21 [7-107] |  | > 60 | 82 | Low potency |  | 
CNC(=O)c1ccc2c(c1)C/C(=N/Nc1nc3ccccc3s1)C2=O [7-117] | No binding |  |  | Not specific |  | 
CNC(=O)c1ccc2c(c1)C(=O)/C(=N\Nc1nc3ccccc3s1)C2 [7-118] | No binding |  |  | very low activity |  | 
